{
  "source": "patent US20210260051A1",
  "about": "“COMBINATION OF EZH2 INHIBITOR AND CHECKPOINT THERAPY FOR THE TREATMENT OF CANCER” (Board of Regents, The University of Texas System, priority 2018, published 2021)",
  "key": {"[1]": {"test_system": "Nalm-6 target tumor cells", "assay": "T cell cytotoxicity assay", "assay_type": "cell-based, human", "settings": "in vitro", "method": "T cell cytotoxicity assay was carried out using activated effector T cells (isolated with EasySep Human Naïve CD4^+ T Cell Isolation Kit and EasySep Human CD8^+ T Cell Enrichment Kit; STEMCELL Technologies). Purified naïve CD4 and total CD8 T cells were pre-activated with plate-bound anti-CD3/soluble anti-CD28 for 6 days in the presence or absence of CPI-1205. Activated T cells were then washed and challenged with Nalm-6 target tumor cells, then labeled with CellTrace violet to enable their subsequent discrimination from effector cells. The T cell:tumor cell co-cultures were conducted at different effector:target (E:T) ratios, in the presence of the blinatumomab antibody (10 ng/ml) and CPI-1205 for 20 hours as previously described (3). Target cell death was determined by summing the percentage of apoptotic (Annexin V^+) and dead or dying (7AAD+) target (CellTrace violet^+) cells after overnight culture."}, "MB49 (bladder) tumor": {"test_system": "MB49 (bladder) tumor", "assay": "MB49 tumor-bearing C57BL/6 mice", "assay_type": "in vivo", "description": "FIGS. 3A-3F: Blocking expression of EZH2 mediated by anti-CTLA-4 using CPI-1205 increases the effectiveness of anti-CTLA-4 therapy. Tumor growth (FIG. 3A), survival (FIG. 3B) and percentages of intra-tumoral CD4^+CD25^+FoxP3^+ regulatory T cells, CD4^+ICOS^+T-bet^+ and CD8^+IFNγ^+ cells (FIG. 3C) in MB49 tumor-bearing mice treated with vehicle, anti CTLA-4, CPI-1205, or the combination. Tumor growth (FIG. 3D) and percentages of CD4^+IFNγ^+ cells and CD8^+TNFα^+ cells in the lymph nodes (LN) (FIG. 3E) of MB49 tumor-bearing Ezh2^fl/+ and FoxP3^CreEzh2^fl/fl mice treated with anti-CTLA-4 on days 7 and 9. (FIG. 3F) Tumor growth and survival of MB49 tumor-bearing Rag-1^−/− mice treated with vehicle or CPI-1205. Data are representative of three independent experiments (n=10 in each group; one-way ANOVA was used to determine significance between the groups. **p<0.01).\nIt was evaluated whether the combination of anti-CTLA-4 with CPI-1205 increases the effectiveness of anti-CTLA-4. MB49 (bladder) and B 16-F10 (melanoma) tumor-bearing C57BL/6 mice were treated with anti-CTLA-4 and the EZH2 inhibitor CPI-1205 as monotherapies and in combination.\nCell lines and tumor model. Murine bladder cancer cell line (MB49) were provided by Dr. A. Kamat (at The University of Texas MD Anderson Cancer Center) and murine melanoma cell line B16-F10 was obtained from Dr. I. Fidler (The University of Texas MD Anderson Cancer Center). 2×10^5 (MB49) or 2×10^5 (B16-F10) cells were injected subcutaneously or intradermally respectively, in the flanks of C57BL/6 mice (5 or 10 mice per group). […]\nTissue processing and flow cytometry. […] Staining with intracellular anti-Foxp3 (eBioscience, FJK-16 s), […] (eBioscience, PC61.5), antiKi-67 (eBioscience, SolA15), antiIFN-γ (BioLegend, XMG1.2), anti-TNF-α (BioLegend, MP6-XT22), and anti-EZH2 (Cell Signaling Technology, D2C9) were analyzed by flow cytometry according to the manufacturers’ instructions. Flow cytometry data were acquired on BD LSR II (BD Biosciences) and analyzed using FlowJo software (Tree Star, Ashland, Oreg.)."}},
  "data": [
    {"smiles": "COc1cc(C)[nH]c(=O)c1CNC(=O)c1c(C)n([C@H](C)C2CCN(CC(F)(F)F)CC2)c2ccccc12", "note": "[CPI-1205, N-[(4-methoxy-6-methyl-2-oxo-1H-pyridin-3-yl)methyl]-2-methyl-1-[(1R)-1-[1-(2,2,2-trifluoroethyl)piperidin-4-yl]ethyl]indole-3-carboxamide]", "values": [
      {"measurement": "cytotoxicity of human effector T cells", "setting": "[1]", "result": "enhanced"},
      {"measurement": "proportion of tumor-infiltrating cytotoxic T cells", "setting": "MB49 (bladder) tumor; in vivo in the murine model (model not named)", "result": "enhanced"},
      {"measurement": "B cell abundance", "setting": "MB49 (bladder) tumor; model not named", "result": "no difference"},
      {"measurement": "myeloid cells", "setting": "MB49 (bladder) tumor; model not named", "result": "effected certain subsets"}
    ]}
  ]
}
